In patent US20080096939A1, “Process For Preparation Of Pramipexole By Chiral Chromatography” (priority 2004, published 2008):

Experiments:
[1] = acetonitrile:methanol (81:19)
Text: Racemic pramipexole was subjected to preparative chromatography using Chiralpak® AD as the stationary phase and acetonitrile:methanol (81:19) as the mobile phase.

[2] = molecular target: dopamine D-2 (Homo sapiens, UniProt P14416); settings: compared with the R(+) enantiomer; cited from earlier work
Chain of dopamine D-2 (P14416 whole entry): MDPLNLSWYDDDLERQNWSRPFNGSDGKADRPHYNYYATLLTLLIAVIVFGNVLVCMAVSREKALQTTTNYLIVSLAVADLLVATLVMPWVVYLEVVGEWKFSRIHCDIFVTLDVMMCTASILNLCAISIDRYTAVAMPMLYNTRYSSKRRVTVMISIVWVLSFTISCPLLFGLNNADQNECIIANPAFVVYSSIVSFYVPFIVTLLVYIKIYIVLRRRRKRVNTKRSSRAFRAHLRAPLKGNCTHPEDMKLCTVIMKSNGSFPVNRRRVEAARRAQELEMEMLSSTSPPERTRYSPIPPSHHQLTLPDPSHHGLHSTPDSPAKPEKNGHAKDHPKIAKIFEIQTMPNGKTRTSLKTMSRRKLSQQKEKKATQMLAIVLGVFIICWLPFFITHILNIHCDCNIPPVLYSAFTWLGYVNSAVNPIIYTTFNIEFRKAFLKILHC

Row | SMILES | solubility in the mobile phase [1] [g/L] | dopaminergic activity of the S(−) enantiomer relative to the corresponding R(+) enantiomer [2]
1 | CCCNC1CCc2nc(N)sc2C1 (racemic) [Racemic pramipexole, R,S(±)-2-amino-6-propylamino-4,5,6,7-tetrahydrobenzothiazole] | > 40 | 
2 | CCCN[C@H]1CCc2nc(N)sc2C1 [Pramipexole, S(−)-2-amino-6-propylamino-4,5,6,7-tetrahydrobenzothiazole] |  | twice as high
